Reference: patent publication US11655235B2, “Pyrrolidine and piperidine compounds” (YUHAN CORPORATION, priority 2019, dated 2023)

Assays:
Type in all cases: biochemical
recombinant human PREP = target: T1, recombinant human PREP (Homo sapiens, UniProt P48147); experiment: PREP inhibition, fluorogenic substrate Z-Gly-Pro-AMC; conditions: Inhibitory Activity (IC50, nM) PREP, recombinant human PREP
T1 construct: purchased R&D System
T1 sequence (P48147 1-710): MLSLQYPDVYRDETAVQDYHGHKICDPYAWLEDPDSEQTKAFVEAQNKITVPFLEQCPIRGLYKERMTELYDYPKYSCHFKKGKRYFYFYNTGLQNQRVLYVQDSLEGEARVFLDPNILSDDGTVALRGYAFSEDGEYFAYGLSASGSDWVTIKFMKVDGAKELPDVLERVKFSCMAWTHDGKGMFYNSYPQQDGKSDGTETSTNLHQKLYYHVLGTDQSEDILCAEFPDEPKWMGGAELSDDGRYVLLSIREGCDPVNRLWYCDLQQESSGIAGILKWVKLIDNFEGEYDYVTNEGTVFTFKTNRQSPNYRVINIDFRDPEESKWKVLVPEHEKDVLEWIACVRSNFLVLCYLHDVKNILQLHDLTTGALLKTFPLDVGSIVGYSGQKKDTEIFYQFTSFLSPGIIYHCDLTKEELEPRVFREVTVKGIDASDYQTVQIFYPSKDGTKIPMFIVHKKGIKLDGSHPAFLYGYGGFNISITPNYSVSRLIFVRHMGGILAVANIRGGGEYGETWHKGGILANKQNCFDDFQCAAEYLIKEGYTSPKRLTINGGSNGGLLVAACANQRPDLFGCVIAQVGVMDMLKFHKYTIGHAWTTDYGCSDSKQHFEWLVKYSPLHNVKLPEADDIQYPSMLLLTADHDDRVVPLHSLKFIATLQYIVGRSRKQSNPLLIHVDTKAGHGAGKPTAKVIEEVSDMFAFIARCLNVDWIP
Procedure: (§1) The compounds according to the present technology were evaluated in terms of the inhibitory effect on the activity of dipeptidyl peptidases including FAP by using a substrate producing fluorescent substances upon enzymatic decomposition. The test was conducted at 25° C. to get a final reaction volume of 100 μL in a 96 black well plate. […] Briefly, the test compounds were dissolved in dimethyl sulfoxide (DMSO) at a concentration of 20 mM and then subjected to serial dilution, thereby creating an 8 point curve. As for the control group, a 6 point curve created by serial dilution of Talabostat in the same buffer solution was used. Fluorescence intensity was measured using a microplate reader (Flexstation3, Molecular Devices) under the wavelength condition exciting at 380 nm and reading the emission at 460 nm. The inhibitory effect of the test compounds was measured as a decrease (%) in the signal rate as compared to the control group without any inhibitor. Data was fixed to a logistic model with four variables and IC50 value was calculated using GraphPad Prism program. As for recombinant human DPP4 (R&D Systems), 25 mM tris (pH 8.0) buffer as a buffer solution and H-Gly-Pro-AMC (Bachem) as a substrate were used. As for recombinant human DPP7 (R&D Systems), 25 mM MES (pH 6.0) buffer as a buffer solution and Lys-Pro-AMC (Bachem) as a substrate were used. As for recombinant human DPP8 (PBS Bioscience), as a buffer solution, a 10 mM tris (pH 7.4) buffer comprising 10 mM of magnesium chloride and 0.05% of Tween 20, and Z-Ala-Pro-AMC (BPS Bioscience) as a substrate were used. As for recombinant human DPP9 (R&D Systems), a 25 mM tris (pH 8.0) buffer as a buffer solution and H-Gly-Pro-AMC (Bachem) as a substrate were used. As for recombinant human PREP (R&D System), as a buffer solution, a 25 mM tris (pH 7.5) buffer comprising 250 mM sodium chloride and 2.5 mM DTT (Dithiolthreitol), and Z-Gly-Pro-AMC (Bachem) as a substrate were used. The evaluation was made by using 10 ng of DPP4, PDD7, and PREP, 20 ng of DPP8, and 50 ng of DPP9 based on the final reaction. In the evaluation of DPP4, the test compounds were subjected to serial dilution in a buffer under the condition containing up to 0.1% of DMSO. In the evaluation of DPP7, DPP8, DPP9, and PREP, the test compounds were subjected to serial dilution in each buffer under the condition containing up to 0.5% of DMSO.

recombinant human DPP7 = target: T2, recombinant human DPP7 (Homo sapiens, UniProt Q9UHL4); experiment: DPP7 inhibition, fluorogenic substrate Lys-Pro-AMC; conditions: recombinant human DPP7
T2 construct: purchased R&D Systems
How it was run: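 Inhibitors are titrated in an 8-point series into the enzyme's assay buffer (DMSO no more than 0.5%). Substrate cleavage at 25 °C is followed by fluorescence, excitation 380 nm and emission 460 nm. IC50 values come from a four-variable logistic model.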

Recombinant human FAP [1] = target: T3, Recombinant human FAP (Homo sapiens, UniProt Q12884); experiment: FAP FRET assay, FGF21-sequence FRET peptide substrate; conditions: FRET peptide with human FGF21 sequence, 6 μM, 37° C.
T3 construct: purchased R&D systems
T3 sequence (Q12884 1-760): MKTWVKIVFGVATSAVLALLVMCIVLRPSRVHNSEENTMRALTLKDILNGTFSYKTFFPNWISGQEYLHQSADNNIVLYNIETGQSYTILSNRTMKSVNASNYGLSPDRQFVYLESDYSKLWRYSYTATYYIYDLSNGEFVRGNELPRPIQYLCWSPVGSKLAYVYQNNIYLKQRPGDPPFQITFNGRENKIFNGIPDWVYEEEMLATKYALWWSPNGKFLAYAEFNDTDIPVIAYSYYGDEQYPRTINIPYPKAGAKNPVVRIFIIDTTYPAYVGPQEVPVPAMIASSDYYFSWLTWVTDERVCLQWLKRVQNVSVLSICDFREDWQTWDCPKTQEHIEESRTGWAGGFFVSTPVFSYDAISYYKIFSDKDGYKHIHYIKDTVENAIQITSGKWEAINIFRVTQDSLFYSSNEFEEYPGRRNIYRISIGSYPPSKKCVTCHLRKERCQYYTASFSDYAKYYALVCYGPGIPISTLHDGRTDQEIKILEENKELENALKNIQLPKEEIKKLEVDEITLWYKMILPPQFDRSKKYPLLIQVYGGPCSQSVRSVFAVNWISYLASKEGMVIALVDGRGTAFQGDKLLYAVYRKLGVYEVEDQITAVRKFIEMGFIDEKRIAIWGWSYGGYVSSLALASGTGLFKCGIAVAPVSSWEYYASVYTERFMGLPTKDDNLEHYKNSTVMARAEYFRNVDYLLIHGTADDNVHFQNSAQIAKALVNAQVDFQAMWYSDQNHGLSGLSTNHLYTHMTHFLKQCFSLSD
How it was run: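 FRET peptide bearing human FGF21 sequence (6 μM final) cleaved by 10 ng recombinant human FAP at 37° C in HEPES pH 7.2 buffer with NaCl, BSA and EDTA, DMSO up to 0.1%. Signal-rate decrease versus uninhibited control fitted to a four-variable logistic model for IC50.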

recombinant human DPP9 = target: T4, recombinant human DPP9 (Homo sapiens, UniProt Q86TI2); experiment: DPP9 inhibition, fluorogenic substrate H-Gly-Pro-AMC; conditions: recombinant human DPP9
T4 construct: purchased R&D Systems
T4 sequence (Q86TI2 whole entry): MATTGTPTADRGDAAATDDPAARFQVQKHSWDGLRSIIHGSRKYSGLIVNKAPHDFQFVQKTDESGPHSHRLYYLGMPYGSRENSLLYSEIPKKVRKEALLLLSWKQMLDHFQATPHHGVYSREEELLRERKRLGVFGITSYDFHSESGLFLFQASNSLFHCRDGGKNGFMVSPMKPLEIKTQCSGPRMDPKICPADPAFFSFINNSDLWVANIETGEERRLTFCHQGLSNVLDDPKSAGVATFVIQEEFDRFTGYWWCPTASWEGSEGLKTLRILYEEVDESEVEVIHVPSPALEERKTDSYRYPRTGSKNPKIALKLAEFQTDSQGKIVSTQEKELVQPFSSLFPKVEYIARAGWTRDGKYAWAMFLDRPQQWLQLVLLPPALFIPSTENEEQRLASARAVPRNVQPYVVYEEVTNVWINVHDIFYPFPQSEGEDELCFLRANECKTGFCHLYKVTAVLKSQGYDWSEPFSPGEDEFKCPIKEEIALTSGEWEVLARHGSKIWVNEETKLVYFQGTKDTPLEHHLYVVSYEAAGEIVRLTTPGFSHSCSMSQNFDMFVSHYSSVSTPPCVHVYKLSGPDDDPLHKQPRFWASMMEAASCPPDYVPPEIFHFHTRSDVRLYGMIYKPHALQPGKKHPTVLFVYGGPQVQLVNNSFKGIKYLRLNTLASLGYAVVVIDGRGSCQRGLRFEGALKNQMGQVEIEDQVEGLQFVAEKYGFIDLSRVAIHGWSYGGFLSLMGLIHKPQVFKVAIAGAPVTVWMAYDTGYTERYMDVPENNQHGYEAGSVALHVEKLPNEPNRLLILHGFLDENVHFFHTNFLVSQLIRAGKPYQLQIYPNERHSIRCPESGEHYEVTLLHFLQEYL
Procedure: as §1

DPP4 = DPP4 (Homo sapiens, UniProt P27487); experiment: DPP4 inhibition, fluorogenic substrate H-Gly-Pro-AMC; design: purchased R&D Systems; conditions: recombinant human DPP4
DPP4, sequence (P27487 whole entry): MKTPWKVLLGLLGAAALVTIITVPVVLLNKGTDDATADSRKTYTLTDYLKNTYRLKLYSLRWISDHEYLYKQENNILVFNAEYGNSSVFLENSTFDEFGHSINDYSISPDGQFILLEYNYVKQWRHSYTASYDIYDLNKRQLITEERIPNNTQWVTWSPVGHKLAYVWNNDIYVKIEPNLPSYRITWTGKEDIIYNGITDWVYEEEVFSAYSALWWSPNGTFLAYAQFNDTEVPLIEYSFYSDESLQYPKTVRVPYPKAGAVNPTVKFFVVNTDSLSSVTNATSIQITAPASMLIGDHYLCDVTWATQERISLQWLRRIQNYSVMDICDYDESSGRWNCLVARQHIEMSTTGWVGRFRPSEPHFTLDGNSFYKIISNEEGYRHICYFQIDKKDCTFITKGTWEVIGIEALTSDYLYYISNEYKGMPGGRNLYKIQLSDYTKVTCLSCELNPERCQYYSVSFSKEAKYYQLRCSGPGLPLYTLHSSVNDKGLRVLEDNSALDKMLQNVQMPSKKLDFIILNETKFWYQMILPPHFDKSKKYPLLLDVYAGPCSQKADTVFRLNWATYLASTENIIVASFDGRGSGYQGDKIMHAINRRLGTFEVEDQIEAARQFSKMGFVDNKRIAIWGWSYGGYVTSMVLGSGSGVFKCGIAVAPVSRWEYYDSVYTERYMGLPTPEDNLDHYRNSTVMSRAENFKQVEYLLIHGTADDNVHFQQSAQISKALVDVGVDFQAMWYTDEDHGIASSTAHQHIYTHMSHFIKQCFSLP

Recombinant human FAP [2] = target: T3, Recombinant human FAP; experiment: FAP inhibition, fluorogenic substrate Z-Gly-Pro-AMC; conditions: recombinant human FAP, substrate Z-Gly-Pro-AMC
How it was run: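 Eight-point compound dilutions (≤0.1% DMSO) were incubated at 25° C with 10 ng recombinant human FAP in Tris pH 7.5/1 M NaCl/BSA buffer and Z-Gly-Pro-AMC. Inhibition was taken as % drop in fluorescence rate (380/460 nm) against uninhibited control; IC50 came from a four-parameter logistic fit.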

For N#C[C@@H]1C[C@H](F)CN1C(=O)CN1CC[C@H](Nc2cc(Cl)c3ncccc3c2)C1 [Example 279, (2S,4S)-4-fluoro-1-[2-[(3S)-3-[(8-chloro-6-quinolyl)amino]pyrrolidin-1-yl]acetyl]pyrrolidine-2-carbonitrile], the IC50 (recombinant human PREP) was 637 nM, the IC50 (recombinant human DPP7) was 398 nM and the IC50 (Recombinant human FAP [1]) was 1.5 nM. The IC50 (recombinant human DPP9) was 614 nM and the IC50 (DPP4) was 254 nM.
In the case of CC(=O)Nc1ccc(N[C@H]2CCN(CC(=O)N3C[C@@H](F)C[C@H]3C#N)C2)c2cccnc12 [Example 297, N-[5-[[(3S)-1-[2-oxo-2-[(2S,4S)-2-cyano-4-fluoro-pyrrolidin-1-yl]ethyl]pyrrolidin-3-yl]amino]-8-quinolyl]acetamide], the IC50 (recombinant human PREP) is reported as 4750 nM, the IC50 (recombinant human DPP7) is reported as 13.5 nM and the IC50 (Recombinant human FAP [1]) is reported as 2.9 nM. For the same molecule, the IC50 (recombinant human DPP9) was 4200 nM and the IC50 (DPP4) was 2810 nM.
With N#C[C@@H]1C[C@H](F)CN1C(=O)CN1CC[C@@H](Nc2cc(Cl)c3ncccc3c2)C1 [Example 215, (2S,4S)-4-fluoro-1-[2-[(3R)-3-[(8-chloro-6-quinolyl)amino]pyrrolidin-1-yl]acetyl]pyrrolidine-2-carbonitrile] the IC50 (recombinant human PREP) was 3150 nM, the IC50 (recombinant human DPP7) was 544 nM and the IC50 (Recombinant human FAP [1]) was 1.5 nM. For the same molecule, the IC50 (recombinant human DPP9) was 631 nM and the IC50 (DPP4) was 1160 nM.
For N#C[C@@H]1C[C@H](F)CN1C(=O)CN1CC[C@@H](Nc2cccc3ncc(Cl)cc23)C1 [Example 185, (2S,4S)-4-fluoro-1-[2-[(3R)-3-[(3-chloro-5-quinolyl)amino]pyrrolidin-1-yl]acetyl]pyrrolidine-2-carbonitrile], the IC50 (recombinant human PREP) was 3550 nM, the IC50 (recombinant human DPP7) was 1300 nM and the IC50 (Recombinant human FAP [1]) was 2.1 nM. For the same molecule, the IC50 (recombinant human DPP9) was 2750 nM and the IC50 (DPP4) was 995 nM.
Cc1cnc2cccc(N[C@@H]3CCN(CC(=O)N4C[C@@H](F)C[C@H]4C#N)C3)c2c1 [Example 179, (2S,4S)-4-fluoro-1-[2-[(3R)-3-[(3-methyl-5-quinolyl)amino]pyrrolidin-1-yl]acetyl]pyrrolidine-2-carbonitrile] gave an IC50 (recombinant human PREP) of 2930 nM, an IC50 (recombinant human DPP7) of 401 nM and an IC50 (Recombinant human FAP [1]) of 3.6 nM. It also gave an IC50 (recombinant human DPP9) of 2560 nM and an IC50 (DPP4) of 1940 nM.
N#C[C@@H]1C[C@H](F)CN1C(=O)CN1CC[C@@H](Nc2c(F)ccc3ncccc23)C1 [Example 173, (2S,4S)-4-fluoro-1-[2-[(3R)-3-[(6-fluoro-5-quinolyl)amino]pyrrolidin-1-yl]acetyl]pyrrolidine-2-carbonitrile] showed an IC50 (recombinant human PREP) of 1870 nM, an IC50 (recombinant human DPP7) of 11100 nM and an IC50 (Recombinant human FAP [1]) of 5.3 nM. The IC50 (recombinant human DPP9) was 2950 nM and the IC50 (DPP4) was 1120 nM.
N#C[C@@H]1CCCN1C(=O)CN1CC[C@H](Nc2ccc(C(=O)Nc3cccnc3)c3ncccc23)C1 [Example 290, N-(3-pyridyl)-5-[[(3S)-1-[2-oxo-2-[(2S)-2-cyanopyrrolidin-1-yl]ethyl]pyrrolidin-3-yl]amino]quinoline-8-carboxamide] showed an IC50 (recombinant human PREP) of 429 nM, an IC50 (recombinant human DPP7) of 121 nM and an IC50 (Recombinant human FAP [1]) of 1.1 nM. For the same molecule, the IC50 (recombinant human DPP9) was 567 nM and the IC50 (DPP4) was 926 nM.
In the case of CN(Cc1ccccc1)C(=O)c1ccc(N[C@H]2CCN(CC(=O)N3CCC[C@H]3C#N)C2)c2cccnc12 [Example 288, N-benzyl-N-methyl-5-[[(3S)-1-[2-oxo-2-[(2S)-2-cyanopyrrolidin-1-yl]ethyl]pyrrolidin-3-yl]amino]quinoline-8-carboxamide], the IC50 (recombinant human PREP) is reported as 11400 nM, the IC50 (recombinant human DPP7) is reported as 677 nM and the IC50 (Recombinant human FAP [1]) is reported as 14 nM. It also gave an IC50 (recombinant human DPP9) of 1210 nM and an IC50 (DPP4) of 18500 nM.
COc1ccc(N[C@H]2CCN(CC(=O)N3CCC[C@H]3C#N)C2)c2cccnc12 [Example 243, (2S)-1-[2-[(3S)-3-[(8-methoxy-5-quinolyl)amino]pyrrolidin-1-yl]acetyl]pyrrolidine-2-carbonitrile] was tested, and the IC50 (Recombinant human FAP [2]) was 2.6 nM, the IC50 (recombinant human DPP7) was 3240 nM and the IC50 (Recombinant human FAP [1]) was 4 nM. The IC50 (DPP4) was 16900 nM.
N#C[C@@H]1CCCN1C(=O)CN1CC[C@@H](Nc2ccc(C(F)(F)F)c3ncccc23)C1 [Example 201, (2S)-1-[2-[(3R)-3-[[8-(trifluoromethyl)-5-quinolyl]amino]pyrrolidin-1-yl]acetyl]pyrrolidine-2-carbonitrile] gave an IC50 (recombinant human PREP) of 9150 nM, an IC50 (recombinant human DPP7) of 3910 nM and an IC50 (Recombinant human FAP [1]) of 1.3 nM. The IC50 (DPP4) was 26300 nM.
Molecule N#Cc1ccc(N[C@H]2CCN(CC(=O)N3C[C@@H](F)C[C@H]3C#N)C2)c2cccnc12 [Example 267, 5-[[(3S)-1-[2-oxo-2-[(2S,4S)-2-cyano-4-fluoro-pyrrolidin-1-yl]ethyl]pyrrolidin-3-yl]amino]quinoline-8-carbonitrile] has an IC50 (recombinant human PREP) of 835 nM, an IC50 (recombinant human DPP7) of 3160 nM and an IC50 (Recombinant human FAP [1]) of 1.5 nM. For the same molecule, the IC50 (DPP4) was 2570 nM.
With N#C[C@@H]1C[C@H](F)CN1C(=O)CN1CCC(Nc2cc(C(F)(F)F)c3ncccc3c2)CC1 [Example 377, (2S,4S)-4-fluoro-1-[2-[4-[[8-(trifluoromethyl)-6-quinolyl]amino]-1-piperidyl]acetyl]pyrrolidine-2-carbonitrile] the IC50 (recombinant human PREP) was 1400 nM, the IC50 (recombinant human DPP7) was 178 nM and the IC50 (Recombinant human FAP [1]) was 12.4 nM. The IC50 (DPP4) was 6610 nM.
